Patent publication US20210038566A1, “USE OF MODULATORS OF NEET PROTEINS FOR THE TREATMENT OF INFECTION” (ENYO PHARMA, priority 2018, published 2021)

tested on: H1N1 (influenza A/New Caledonia/20/99); assay: microbe, parasite or virus in culture; format: cell-based; conditions: H1N1, A549, 48 h, read-out: IC50 (antiviral effect, Influenza replication)

SMILES | IC50
COc1ccc(C(=O)Nc2sc3c(c2C(=O)O)CCC(C)(C)C3)cc1OC [Compound #18] | 0.05 µM
CCOC(=O)N1CCC(NC(=S)Nc2cc(Cl)cc(Cl)c2)CC1 [Compound T01001, ethyl-4-(3-(3,5-dichlorophenyl)thioureido)piperidine-1-carboxylate] | 18 µM
CCc1ccc(CCOc2ccc(CC3SC(=O)NC3=O)cc2)nc1 (stereo not drawn) [Pioglitazone] | 38 µM
